Structures are written as SMILES.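 Each compound was tested at five concentrations against cells in 96-well plates for 48 hours. At the GI50, growth is halved. TGI is the concentration that stops growth completely.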 Numbered stars: 1 amine (or outer) side, 2 acyl side, 3 side chain; on linkers, the order of the positions; unused ones are H or OH. Bridge positions count the residues as written; N and C are the ends. Square brackets hold non-standard residues; d marks the D form. Peptide text beside a SMILES is read from it. I, II: the chains in the order shown. Actinocin(1to9) = Cc1c2oc3c(C)ccc(C(=O)[*:2])c3nc-2c(C(=O)[*:1])c(N)c1=O; NMeY = CN[CH](Cc1ccc(O)cc1)C(=O)O; Sar = CNCC(=O)O

The source of these data is PubChem BioAssay (NCI).

Holding throughout (experiment): NCI anticancer screen, dose series, 48 h
The subject of test [1] is MDA-N.
In test [2] the test system is DLD-1 colon.
Test [3] deals with LXFL 529 NSCLC.
The subject of test [4] is M19-MEL melanoma.
Test [5] has as its system XF 498 CNS.
The test system of test [6] is DMS 273 small cell lung.
Test [7] has as its system HOP-18 NSCLC.
The test system of test [8] is T-47D breast.

In the case of `NC(Cc1ccccc1)c1nccs1` (stereo not given), in test [1], the TGI was > 100 µM.
On to `COC(=O)C1CCc2nnc(-c3ccccc3)n21` (stereo not given), for which the TGI in test [2], in test [3], in test [4] and in test [5] was > 100 µM in each case.
On to `COc1ccc2c(c1)CN1CCc3c(cc(OC)c(OC)c3OC)C1C2` (stereo not given), for which the TGI in test [2], in test [6], in test [7], in test [3], in test [4] and in test [5] was > 100 µM throughout.
As for `C/C=C(\C)C(=O)OC1/C=C(\C)CC/C=C(\C)CC2OC(=O)C(C)(OC(C)=O)C12` (stereo not given), the TGI in test [1] and in test [8] was > 100 µM throughout.
Take `CCC[CH2][Sn]1([CH2]CCC)[S]CC[N]1S(=O)(=O)c1ccc(C)cc1`: the GI50 in test [2] is 1.58 µM; in test [6], 1.65 µM; in test [3] it was 0.33 µM; in test [4], 1.32 µM. Also, the TGI in test [2] was 2.99 µM; in test [6] it was 3.16 µM; in test [3] it was 1.12 µM; in test [4] it was 3.03 µM.
With `CC1=NOC(=O)/C1=C/c1ccc2c(c1)OCO2`, the TGI in test [1] was 85.7 µM; in test [8], > 100 µM.
As for `C[C@H]1C=C2C(=O)O[C@H]3CC[C@@H](C1)[C@@]23O`, the TGI in test [2] stood at 10.7 µM; in test [7], 13.4 µM; in test [3] it was 10.6 µM; in test [4], 15.1 µM.
`CC[PH+](CC)CC.[Cl][Au]`: the GI50 is 1.28 µM in test [2]; 4.77 µM in test [6]; 1.64 µM in test [7]; 0.481 µM in test [3]; 1.08 µM in test [4]; 1.37 µM in test [5]. The TGI was found to be 2.93 µM in test [2]; 22.1 µM in test [6]; 3 µM in test [7]; 1.07 µM in test [3]; 6.56 µM in test [4]; 2.67 µM in test [5].
With `Cc1ccc(C(=O)NC2CC2)cc1-c1ccc2[nH]ncc2c1`, in test [8], the GI50 was > 25 µM and the TGI was > 25 µM.
For the compound `C[C@]12C[C@H](O)[C@H]3[C@@H](CCC4=CC(=O)CC[C@@]43C)[C@@H]1CC[C@@H]2c1csc(-c2ccccc2)n1`, the TGI in test [1] and in test [8] was > 100 µM each time.
Take `CO/N=C(\COc1ccc2oc(-c3ccccc3)cc(=O)c2c1)c1ccc(F)cc1`: in test [8], the GI50 was 21.5 µM and the TGI was determined as 59.3 µM.
The matching figures for `C=C1CCC2C3(C)COC(c4ccccc4Cl)OC3CCC2(C)C1/C=C/C1=CCOC1=O` (stereo not given): 3.39 µM and > 100 µM.
Take `CC1=C(C)SC(=C2Sc3c(n(C)c(=O)n(C)c3=O)S2)S1`: the TGI in test [1] and in test [8] was > 100 µM each time.
For `NC(=O)NN=C1Cc2ccccc2C1`, the TGI in test [1] and in test [8] was > 100 µM in each case.
In the case of `CCOC(=O)C1=C(C)NC(c2ccco2)=C(C#N)C1c1cccc([N+](=O)[O-])c1` (stereo not given), the GI50 in test [8] is 20.9 µM.
For `CC1(C)CCC[C@]2(C)c3ccccc3C(=O)CC12` (stereo not given in full), in test [8], the GI50 was 53.5 µM and the TGI is > 100 µM.
For `CCOC(=O)/C=C/c1cccc(F)c1`, the TGI in test [1] and in test [8] was > 100 µM in each case.
Take `CC[C@]12C=CCN3CCC4(c5cc([C@@]6(C(=O)OC)CC7CN(CCc8c6[nH]c6ccccc86)CC6CCCCC67)c(OC)cc5N(C)C4[C@](O)(C(=O)OC)C1OC(C)=O)[C@@H]32` (stereo not given in full): the TGI worked out at 13.2 µM in test [2], 12.7 µM in test [3], 17.6 µM in test [4] and 9.12 µM in test [5].
On to `COCCNc1cncc(C(N)=O)c1`, for which the TGI in test [1] and in test [8] was > 100 µM throughout.
As for `O=C1N=C(Nc2nc(-c3csc(NC4=NC(=O)/C(=C\c5ccccc5)S4)n3)cs2)S/C1=C/c1ccccc1`, in test [8], the GI50 is > 50 µM and the TGI is > 50 µM.
Take `CS(=O)(=O)N(c1cc(-c2ccc3ncnc(Nc4ccc(F)c(Cl)c4)c3c2)cnc1Cl)S(C)(=O)=O`: in test [8], the GI50 is 0.13 µM and the TGI was determined as 1.8 µM.
The matching figures for `COc1ccc2nc3cc(Cl)ccc3c(Nc3cc(CN4CCCC4)c(O)c(CN4CCCC4)c3)c2n1`: 2.74 µM and 9.55 µM.
In test [1], `COc1ccc(CC2C(=O)OC(C)C(NC(=O)c3c4nc5c(C(=O)NC6C(=O)NC(C(C)C)C(=O)N7CCCC7C(=O)N(C)CC(=O)N(C)C(Cc7ccc(OC)cc7)C(=O)OC6C)ccc(C)c5oc-4c(C)c(=O)c3N)C(=O)NC(C(C)C)C(=O)N3CCCC3C(=O)N(C)CC(=O)N2C)cc1` (stereo not given) (I: TVP[Sar][NMeY](Me) / II: TVP[Sar][NMeY](Me); ester I:1-I:C, II:1-II:C; linker I:N-II:N via Actinocin(1to9); configuration not given here) came in with a TGI of 0.218 µM.
In the case of `COc1ccc(-c2cc(=O)c3c(O)c(OC)c(OC)c(OC)c3o2)cc1`, the results for the TGI in test [1] and in test [8] were 13 µM and > 100 µM, respectively.
Take `CCCCn1c(=O)c(/C=C/C(=O)/C=C/c2cc3ccccc3n(CCCC)c2=O)cc2ccccc21`: in test [8], the GI50 was 2.28 µM and the TGI turned out to be 6.33 µM.
On to `O=C1Nc2cc(F)ccc2C1=O`, for which the TGI in test [2], in test [6], in test [7], in test [3], in test [4] and in test [5] was > 100 µM in each case.
With `NC(=O)c1ccc(Cl)c([N+](=O)[O-])c1`, the TGI in test [2], in test [6], in test [7], in test [3], in test [4] and in test [5] was > 100 µM each time.
